Results taken from patent publication US7795281B2, “Optically active dihydropyridine derivative” (Daiichi Sankyo Company, Limited, priority 2002, dated 2010).
pIC50, pKi: −log10 of the molar value.

Columns and labels:
[1] = system: male spontaneously hypertensive rats; assay: Blood pressure lowering action in hypertensive rats; assay type: in vivo, rat
Description: Blood Pressure Lowering Action in Hypertensive Rats
Cannulas for measuring blood pressure and administering drug were inserted into the inguinal artery and inguinal vein, respectively, of male spontaneously hypertensive rats age 25 to 29 weeks followed by intravenous administration of a compound under anesthesia and measurement of blood pressure over time for the course of 120 minutes.
The results of comparing the racemic form (20 μg/kg) and R form (10 μg/kg) are shown in Table 2, while the results of comparing the R form (3 μg/kg, 10 μg/kg) and the S form (1000 μg/kg) in a different series of experiments are shown in Table 3.

L calcium channel = target: T1, L calcium channel (Sus scrofa, UniProt A0A8W4FNC0); assay: Receptor binding experiment using porcine myocardial microsomes (3H-nitrendipine); conditions: for pIC50 / pKi: porcine myocardial microsomes, average of two experiments; for pIC50: 3H-nitrendipine 0.1 nM, read-out: IC50 (50% inhibitory concentration of specific binding); for pKi: Ki=IC50/(1+[L]/Kd), read-out: Ki (inhibition constant)
T1 construct: from tissue; host or cells: porcine myocardium (microsome fraction)
Description: Receptor Binding Experiment Using Porcine Myocardial Microsomes
Porcine myocardial microsomes were used for the source of the L calcium channel, while ^3H-nitrendipine was used for the ligand of the L calcium channel. The microsomes (0.2 mg protein/ml), ^3H-nitrendipine (0.1 nM) and test drug (racemic form, R form or S form) were allowed to react at room temperature for 30 minutes in HEPES buffer (50 mM, pH 7.4) followed by measurement of the ^3H-nitrendipine that bound to the microsome fraction with a liquid scintillation counter. The count in the presence of 10 μM non-labeled nitrendipine (amount of non-specific binding) was then subtracted to determine the amount of specific binding. The relationship between the concentration and inhibition rate of specific binding was approximated to a logistic curve for each test drug to determine IC50 (50% inhibitory concentration of specific binding). The Ki value (inhibition constant) for each test drug was then determined from the following formula using the Kd (dissociation constant) of nitrendipine as separately determined from a Scatchard plot: Ki=IC50/(1+[L]/Kd) (wherein [L] is the concentration of ^3H-nitrendipine).

T1 sequence (A0A8W4FNC0 1-2067): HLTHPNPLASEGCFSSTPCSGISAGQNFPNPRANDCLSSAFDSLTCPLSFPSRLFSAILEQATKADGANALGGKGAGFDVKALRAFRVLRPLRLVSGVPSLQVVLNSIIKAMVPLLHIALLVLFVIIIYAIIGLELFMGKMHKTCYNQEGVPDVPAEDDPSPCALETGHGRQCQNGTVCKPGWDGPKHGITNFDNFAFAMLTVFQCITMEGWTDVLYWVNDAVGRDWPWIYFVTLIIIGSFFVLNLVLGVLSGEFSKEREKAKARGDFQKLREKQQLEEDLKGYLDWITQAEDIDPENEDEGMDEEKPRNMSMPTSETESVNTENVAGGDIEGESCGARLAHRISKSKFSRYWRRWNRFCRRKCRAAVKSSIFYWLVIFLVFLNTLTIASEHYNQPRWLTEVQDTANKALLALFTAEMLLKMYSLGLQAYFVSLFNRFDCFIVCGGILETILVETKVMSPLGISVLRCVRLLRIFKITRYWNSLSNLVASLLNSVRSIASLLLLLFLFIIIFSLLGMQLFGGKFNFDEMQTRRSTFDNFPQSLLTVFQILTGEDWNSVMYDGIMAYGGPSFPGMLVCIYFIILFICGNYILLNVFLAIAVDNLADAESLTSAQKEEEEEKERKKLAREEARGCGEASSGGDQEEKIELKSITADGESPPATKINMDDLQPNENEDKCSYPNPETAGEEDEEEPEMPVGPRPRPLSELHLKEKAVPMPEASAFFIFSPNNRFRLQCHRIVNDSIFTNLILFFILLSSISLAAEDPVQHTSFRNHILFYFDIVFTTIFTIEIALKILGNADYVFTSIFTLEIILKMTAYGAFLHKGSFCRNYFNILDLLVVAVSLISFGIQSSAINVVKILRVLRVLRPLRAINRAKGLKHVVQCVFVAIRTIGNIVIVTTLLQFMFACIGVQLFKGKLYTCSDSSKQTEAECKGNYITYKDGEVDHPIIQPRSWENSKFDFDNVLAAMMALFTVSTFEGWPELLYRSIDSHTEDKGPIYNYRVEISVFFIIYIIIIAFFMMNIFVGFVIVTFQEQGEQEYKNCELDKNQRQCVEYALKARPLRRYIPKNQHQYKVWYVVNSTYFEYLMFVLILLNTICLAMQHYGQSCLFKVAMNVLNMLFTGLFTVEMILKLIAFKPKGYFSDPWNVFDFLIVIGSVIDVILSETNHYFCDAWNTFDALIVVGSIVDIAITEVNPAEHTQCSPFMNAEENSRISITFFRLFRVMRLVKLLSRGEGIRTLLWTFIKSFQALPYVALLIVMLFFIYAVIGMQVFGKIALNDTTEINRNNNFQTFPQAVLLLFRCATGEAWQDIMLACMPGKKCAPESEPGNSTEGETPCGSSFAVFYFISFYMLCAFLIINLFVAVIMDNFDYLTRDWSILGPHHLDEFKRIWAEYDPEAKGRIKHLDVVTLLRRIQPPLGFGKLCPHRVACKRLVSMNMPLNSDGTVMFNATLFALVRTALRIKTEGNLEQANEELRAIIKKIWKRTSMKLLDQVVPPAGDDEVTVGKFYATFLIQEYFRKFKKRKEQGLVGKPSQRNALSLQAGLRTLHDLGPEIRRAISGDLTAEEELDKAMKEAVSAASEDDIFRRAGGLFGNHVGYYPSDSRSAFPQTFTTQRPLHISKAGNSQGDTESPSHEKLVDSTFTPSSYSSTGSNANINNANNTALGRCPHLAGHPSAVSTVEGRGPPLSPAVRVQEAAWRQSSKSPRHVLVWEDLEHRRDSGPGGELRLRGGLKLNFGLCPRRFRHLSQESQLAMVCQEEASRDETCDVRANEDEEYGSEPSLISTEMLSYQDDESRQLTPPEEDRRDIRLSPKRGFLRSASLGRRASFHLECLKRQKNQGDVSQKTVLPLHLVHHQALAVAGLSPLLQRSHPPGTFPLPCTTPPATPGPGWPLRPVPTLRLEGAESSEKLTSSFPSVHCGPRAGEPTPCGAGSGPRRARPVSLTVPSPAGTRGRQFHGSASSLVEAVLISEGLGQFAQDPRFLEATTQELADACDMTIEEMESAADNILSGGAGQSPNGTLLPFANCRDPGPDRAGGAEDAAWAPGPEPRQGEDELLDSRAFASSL

Structure (SMILES): CC1=C(C(=O)OC(C)C)C(c2cccc([N+](=O)[O-])c2)C(C(=O)OC2CN(C(c3ccccc3)c3ccccc3)C2)=C(N)N1 (racemic) [Racemic form, (±)-2-amino-1,4-dihydro-6-methyl-4-(3-nitrophenyl)-3,5-pyridinedicarboxylic acid 3-(1-diphenylmethylazetidin-3-yl) ester 5-isopropyl ester, reference compound]
- Change in blood pressure ([1]; 20 μg/kg i.v., 0 minutes, Table 2, mean ± standard error): 0 ± 0 mmHg
- Change in blood pressure ([1]; 20 μg/kg i.v., 10 minutes, Table 2, mean ± standard error): −21 ± 2 mmHg
- Change in blood pressure ([1]; 20 μg/kg i.v., 30 minutes, Table 2, mean ± standard error): −35 ± 4 mmHg
- Change in blood pressure ([1]; 20 μg/kg i.v., 60 minutes, Table 2, mean ± standard error): −42 ± 6 mmHg
- Change in blood pressure ([1]; 20 μg/kg i.v., 90 minutes, Table 2, mean ± standard error): −45 ± 6 mmHg
- Change in blood pressure ([1]; 20 μg/kg i.v., 120 minutes, Table 2, mean ± standard error): −48 ± 7 mmHg
- pIC50 (L calcium channel): 8.51
- pKi (L calcium channel): 8.68

Structure (SMILES): CC1=C(C(=O)OC(C)C)[C@@H](c2cccc([N+](=O)[O-])c2)C(C(=O)OC2CN(C(c3ccccc3)c3ccccc3)C2)=C(N)N1 [R form, (R)-2-amino-1,4-dihydro-6-methyl-4-(3-nitrophenyl)-3,5-pyridinedicarboxylic acid 3-(1-diphenylmethylazetidin-3-yl) ester 5-isopropyl ester]
- Change in blood pressure ([1]; 3 μg/kg i.v., 0 minutes, Table 3 (different series of experiments), mean ± standard error): 0 ± 0 mmHg
- Change in blood pressure ([1]; 3 μg/kg i.v., 10 minutes, Table 3 (different series of experiments), mean ± standard error): −3 ± 3 mmHg
- Change in blood pressure ([1]; 3 μg/kg i.v., 30 minutes, Table 3 (different series of experiments), mean ± standard error): −14 ± 3 mmHg
- Change in blood pressure ([1]; 3 μg/kg i.v., 60 minutes, Table 3 (different series of experiments), mean ± standard error): −28 ± 3 mmHg
- Change in blood pressure ([1]; 3 μg/kg i.v., 90 minutes, Table 3 (different series of experiments), mean ± standard error): −34 ± 5 mmHg
- Change in blood pressure ([1]; 3 μg/kg i.v., 120 minutes, Table 3 (different series of experiments), mean ± standard error): −34 ± 10 mmHg
- Change in blood pressure ([1]; 10 μg/kg i.v., 0 minutes, Table 2, mean ± standard error): 0 ± 0 mmHg
- Change in blood pressure ([1]; 10 μg/kg i.v., 0 minutes, Table 3 (different series of experiments), mean ± standard error): 0 ± 0 mmHg
- Change in blood pressure ([1]; 10 μg/kg i.v., 10 minutes, Table 2, mean ± standard error): −17 ± 4 mmHg
- Change in blood pressure ([1]; 10 μg/kg i.v., 10 minutes, Table 3 (different series of experiments), mean ± standard error): −23 ± 5 mmHg
- Change in blood pressure ([1]; 10 μg/kg i.v., 30 minutes, Table 2, mean ± standard error): −28 ± 5 mmHg
- Change in blood pressure ([1]; 10 μg/kg i.v., 30 minutes, Table 3 (different series of experiments), mean ± standard error): −36 ± 6 mmHg
- Change in blood pressure ([1]; 10 μg/kg i.v., 60 minutes, Table 2, mean ± standard error): −43 ± 7 mmHg
- Change in blood pressure ([1]; 10 μg/kg i.v., 60 minutes, Table 3 (different series of experiments), mean ± standard error): −49 ± 11 mmHg
- Change in blood pressure ([1]; 10 μg/kg i.v., 90 minutes, Table 2, mean ± standard error): −45 ± 7 mmHg
- Change in blood pressure ([1]; 10 μg/kg i.v., 90 minutes, Table 3 (different series of experiments), mean ± standard error): −54 ± 8 mmHg
- Change in blood pressure ([1]; 10 μg/kg i.v., 120 minutes, Table 2, mean ± standard error): −47 ± 6 mmHg
- Change in blood pressure ([1]; 10 μg/kg i.v., 120 minutes, Table 3 (different series of experiments), mean ± standard error): −61 ± 6 mmHg
- Blood pressure lowering activity, potency relative to S form ([1]; R form vs S form): roughly 300 times
- Blood pressure lowering activity, potency relative to racemic form ([1]; R form vs racemic form): roughly twice as potent
- L calcium channel inhibitory activity, potency relative to S form (L calcium channel; R form vs S form): roughly 500 times
- L calcium channel inhibitory activity, potency relative to racemic form (L calcium channel; R form vs racemic form): more than twice as potent
- pIC50 (L calcium channel): 8.89
- pKi (L calcium channel): 9.06

Structure (SMILES): CC1=C(C(=O)OC(C)C)[C@H](c2cccc([N+](=O)[O-])c2)C(C(=O)OC2CN(C(c3ccccc3)c3ccccc3)C2)=C(N)N1 [S form, (S)-2-amino-1,4-dihydro-6-methyl-4-(3-nitrophenyl)-3,5-pyridinedicarboxylic acid 3-(1-diphenylmethylazetidin-3-yl) ester 5-isopropyl ester]
- Change in blood pressure ([1]; 1000 μg/kg i.v., 0 minutes, Table 3 (different series of experiments), mean ± standard error): 0 ± 0 mmHg
- Change in blood pressure ([1]; 1000 μg/kg i.v., 10 minutes, Table 3 (different series of experiments), mean ± standard error): −5 ± 1 mmHg
- Change in blood pressure ([1]; 1000 μg/kg i.v., 30 minutes, Table 3 (different series of experiments), mean ± standard error): −18 ± 6 mmHg
- Change in blood pressure ([1]; 1000 μg/kg i.v., 60 minutes, Table 3 (different series of experiments), mean ± standard error): −29 ± 10 mmHg
- Change in blood pressure ([1]; 1000 μg/kg i.v., 90 minutes, Table 3 (different series of experiments), mean ± standard error): −36 ± 7 mmHg
- Change in blood pressure ([1]; 1000 μg/kg i.v., 120 minutes, Table 3 (different series of experiments), mean ± standard error): −35 ± 4 mmHg
- pIC50 (L calcium channel): 6.15
- pKi (L calcium channel): 6.34
